Test results reported in US9682126B2, “Postprandial gastrokinetic agent” (ZERIA PHARMACEUTICAL CO., LTD., priority 2013, dated 2017).

Experiments:
Suncus murinus [1] = assay: Gastric motility in interdigestive period, sham-operated vs vagotomized (Example 2); format: in vivo; settings: motilin 50 ng/kg/min iv over 10 minutes
Description: Each of Suncus motilin (Scrum Inc., Tokyo, Japan) and human ghrelin (Asubio Pharma Co., Ltd., Hyogo, Japan) were dissolved in PBS containing 0.1% bovine serum albumin. Suncus murinus (male, outbred KAT strain, 7 to 15 weeks old, 60 to 100 g) was used for the experiment. Each animal was bred in a plastic cage provided with an empty can as a nest box under the following conditions: temperature at 23±2° C., illumination between 8:00 and 20:00, and free intake of commercial trout feed (SP, Nippon Formula Feed Mfg Co., Ltd., Yokohama, Japan). After 3 hours of fasting, Suncus murinus was anesthetized by an intraperitoneal injection of pentobarbital sodium (50 mg/kg). Through a midline incision, the stomach was exposed outside the body, and a force transducer was fixed via suture in the circular muscle direction of the body of stomach. The wire extending from the force transducer was inserted through the abdominal wall, passed under the skin, and exposed at the back of the neck. Thereafter, truncal vagotomy was performed. A lower portion of the esophagus was exposed, both branches of the vagus nerve were isolated, and about 3 mm of the vagus nerve was excised above the hepatic branch and the celiac branch. For sham-operated Suncus murinus, the vagus nerve was exposed, but not excised. An intravenous catheter was inserted in the right jugular, and extracorporeally fixed to the back. The catheter was filled with heparinized saline (100 units/mL) to prevent clotting. From 2 days after the operation, the gastric motility was recorded. Administration of motilin was initiated 10 minutes after completion of spontaneous phase III. Synthesized suncus motilin was continuously injected at 50 ng/kg/min over 10 minutes, and the continuously injected amount was 50 μL/100 g BW/min. Administration of ghrelin was initiated 10 minutes after completion of spontaneous phase II. […] Amplified analog signals were converted into digital signals by an analog-to-digital converter (ADC-20, Pico Technology Ltd, St Neots, UK), and the digital signals were recorded on a computer. Phase III contractions of MMC in conscious Suncus murinus were defined on the basis of those in dogs and humans (that is, clustered contractions with an amplitude of 8 g or more that lasts for 5 minutes or more). Gastric motility was quantitated using a motility index (MI). A motility index (MI) based on a drug was calculated using the following equation. MI (%)=A/B×100 A: AUC of contractions for 10 minutes during which the drug was administered B: […] Statistical analysis After ANOVA, Student's t test was performed.

Suncus murinus [2] = assay: Postprandial motility by co-administration of ghrelin and motilin, ΔMI (Example 3); format: in vivo
Description: Each of Suncus motilin (Scrum Inc., Tokyo, Japan) and human ghrelin (Asubio Pharma Co., Ltd., Hyogo, Japan) was dissolved in PBS containing 0.1% bovine serum albumin.
Suncus murinus (male, outbred KAT strain, 7 to 39 weeks old, 56 to 91 g) was used for the experiment. The Each animal was bred in a plastic cage provided with an empty can as a nest box under the following conditions: temperature at 23±2° C., illumination between 8:00 and 20:00, and free intake of commercial trout feed (SP, Nippon Formula Feed Mfg Co., Ltd., Yokohama, Japan).
After 3 hours of fasting, Suncus murinus was anesthetized by an intraperitoneal injection of pentobarbital sodium (50 mg/kg). Through a midline incision, the stomach was exposed outside the body, and a force transducer was fixed via suture in the circular muscle direction of the body of stomach. The wire extending from the force transducer was inserted through the abdominal wall, passed under the skin, and exposed at the back of the neck.
An intravenous catheter was inserted in the right jugular, and extracorporeally fixed to the back. The catheter was filled with heparinized saline (100 units/mL) to prevent clotting.
Each of the operated Suncus murinus was allowed to recover for several days.
Drug administration and measurement of gastric motility were performed in the conscious, free-moving state without anesthesia.
2 g of feed was given to each Suncus murinus fastened (for 8 to 10 hours) for 10 minutes. After the intake of feed for 10 minutes, ghrelin (50, 1,000, or 3,000 ng/kg), motilin (300, 500, 1,000, or 3,000 ng/kg), or a mixed solution of ghrelin (15 or 50 ng/kg) and motilin (100, 200, or 300 ng/kg) was intravenously administered through a jugular vein catheter rapidly.
Amplified analog signals were converted into digital signals by an analog-to-digital converter (ADC-20, Pico Technology Ltd, St Neots, UK), and the digital signals were recorded on a computer.
Phase III contractions of MMC in conscious Suncus murinus were defined on the basis of those in dogs and humans (that is, clustered contractions with an amplitude of 8 g or more that lasts for 5 minutes or more).
Gastric motility was quantitated using a motility index (ΔMI). A motility index (ΔMI) based on a drug was calculated using the following equation. ΔMI (%)=(A−C)/B×100 A: AUC of contractions for 10 minutes during which the drug was administered B: AUC of 10-minute spontaneous phase III contractions appeared before administration of the drug C: (AUC of contractions appeared for 5 minutes between 5 and 10 minutes after the intake of feed)×2 (2) Results (FIG. 9) A. Action of Ghrelin Alone

[3] = motilin 300 ng/kg iv after feed intake
[4] = motilin 500 ng/kg iv after feed intake
[5] = motilin 1,000 ng/kg iv after feed intake
[6] = motilin 3,000 ng/kg iv after feed intake

CC[C@H](C)[C@H](NC(=O)[C@@H]1CCCN1C(=O)[C@@H](NC(=O)[C@@H](N)Cc1ccccc1)C(C)C)C(=O)N[C@@H](Cc1ccccc1)C(=O)N[C@H](C(=O)N[C@@H](Cc1ccc(O)cc1)C(=O)NCC(=O)N[C@@H](CCC(=O)O)C(=O)N[C@@H](CC(C)C)C(=O)N[C@@H](CCC(N)=O)C(=O)N[C@@H](CCCNC(=N)N)C(=O)N[C@@H](CCSC)C(=O)N[C@@H](CCC(N)=O)C(=O)N[C@@H](CCC(=O)O)C(=O)N[C@@H](CCCCN)C(=O)N[C@@H](CCC(=O)O)C(=O)N[C@@H](CCCNC(=N)N)C(=O)N[C@@H](CC(N)=O)C(=O)N[C@@H](CCCCN)C(=O)NCC(=O)N[C@@H](CCC(N)=O)C(=O)O)[C@@H](C)O [motilin]
motilin-induced phase III-like contractions (Suncus murinus [1]; both sham-operated and vagotomized, 10 minutes after spontaneous phase III): phase III-like contractions were observed
contraction duration due to motilin, sham-operated vs vagotomized (Suncus murinus [1]; phase I): a significant difference was not observed
motility index (MI) during administration of motilin, sham-operated vs vagotomized (Suncus murinus [1]; phase I): a significant difference was not observed
Motility Index (ΔMI) (Suncus murinus [2]; [3]): About 4.9%
contractions of the body of the stomach (Suncus murinus [2]; [3]): did not induce contractions of the body of the stomach
Motility Index (ΔMI) (Suncus murinus [2]; [4]): About 6.8%
contractions of the body of the stomach (Suncus murinus [2]; [4]): did not induce contractions of the body of the stomach
Motility Index (ΔMI) (Suncus murinus [2]; [5]): About 49.5%
phase III-like contractions (Suncus murinus [2]; [5]): induced phase III-like contractions
Motility Index (ΔMI) (Suncus murinus [2]; [6]): about 48.3%
phase III-like contractions (Suncus murinus [2]; [6]): induced phase III-like contractions
